From paper PMC11497264 (Chembiochem, 2024) come the findings set out here.

Like-named read-outs stand apart in the source and are kept apart here. Bridge positions count the residues as written; N and C are the ends. Peptide text beside a SMILES is read from it.

A word on the Kd: it is the concentration at which binding is half-saturated. Read a low Kd as tighter binding.

For the test, the target named is T1, human GRP78 (Homo sapiens, UniProt P11021).
T1 construct: The full length human GRP78 protein recombinantly produced in Escherichia coli; 6xHis (inferred from capture on nickel-NTA chip); purchased Abcam (Cambridge, UK); host or cells: Escherichia coli
T1 sequence (P11021 19-654): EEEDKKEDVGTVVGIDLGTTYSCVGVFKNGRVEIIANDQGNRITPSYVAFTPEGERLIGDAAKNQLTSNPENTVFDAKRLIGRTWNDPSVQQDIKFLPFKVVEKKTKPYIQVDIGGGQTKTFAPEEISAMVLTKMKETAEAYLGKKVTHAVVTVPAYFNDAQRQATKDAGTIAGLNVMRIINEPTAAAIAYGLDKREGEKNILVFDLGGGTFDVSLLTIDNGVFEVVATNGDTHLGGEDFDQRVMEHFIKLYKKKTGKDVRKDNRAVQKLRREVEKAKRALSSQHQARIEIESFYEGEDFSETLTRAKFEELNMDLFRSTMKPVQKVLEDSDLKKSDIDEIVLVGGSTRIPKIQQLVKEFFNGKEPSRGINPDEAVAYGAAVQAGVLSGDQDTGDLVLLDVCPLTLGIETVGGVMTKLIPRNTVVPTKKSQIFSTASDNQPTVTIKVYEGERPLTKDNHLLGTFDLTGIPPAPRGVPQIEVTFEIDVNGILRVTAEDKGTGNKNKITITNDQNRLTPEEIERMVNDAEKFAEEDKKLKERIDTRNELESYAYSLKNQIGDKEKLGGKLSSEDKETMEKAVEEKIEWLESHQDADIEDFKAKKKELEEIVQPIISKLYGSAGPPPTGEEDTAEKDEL
The test is described as follows: biochemical. The class given is binding.

In turn, `CC(C)C[C@@H]1NC(=O)[C@H](C)NC(=O)[C@H](C(C)C)NC(=O)[C@H]([C@@H](C)O)NC(=O)[C@@H](N)CSSC[C@@H](C(N)=O)NC(=O)[C@H](C(C)C)NC(=O)[C@H](CCCNC(=N)N)NC(=O)[C@H](C(C)C)NC(=O)[C@H](Cc2ccc(O)cc2)NC(=O)CNC(=O)CNC(=O)[C@@H]2CCCN2C1=O` [Pep42, reference compound] (H-CTVALPGGYVRVC-NH2; disulfide 1-13) displayed a Kd (affinity of binding to GRP78) of 3.4 mM. Also, the kon (read-out: Ka1 (association rate constant 1)) is 160 M⁻¹ s⁻¹. The koff was found to be 0.678 s⁻¹ (read-out: Kd1 (dissociation rate constant 1)) and 0.0116 s⁻¹ (read-out: Kd2 (dissociation rate constant 2)).
